Assay results taken from patent US20090203609A1, “Use of IL-1 inhibitors for treating IL-1 mediated diseases” (AMGEN INC., priority 1996, published 2009).

Assays:
adjuvant arthritic rats [1] = experiment: Adjuvant arthritis model, first Example 4 (rhuIL-1ra 5 mg/kg/hr infusion, methotrexate dose range); assay type: in vivo, Male Lewis rats; conditions: rhuIL-1ra alone
Procedure: (§1) Male Lewis rats (Charles River, Portage, Mich.) (5-7/group) weighing at least 250-300 g were cannulated in the subcutis of the dorsal back and allowed to recover for several days. They were then placed in infusion cages and acclimated for at least 4 days prior to initiating adjuvant injections. On day-0, all rats were injected with 100 μl of Freunds Complete Adjuvant (Sigma Chemical Co., St. […] Body weights were taken on day 0 and every other day from day 8 to termination on day 15. Caliper measurements and clinical scoring were done on day 8 and every other day until termination. At this time the animals' body, paw and spleen weights were determined.

adjuvant arthritic rats [2] = experiment: Adjuvant arthritis model, Example 2 (rhuIL-1ra IV infusion, oral methotrexate); assay type: in vivo, Male Lewis rats; conditions: rhuIL-1ra 5 mg/kg/hr continuous IV infusion from day 8; methotrexate 0.06 mg/kg oral days 0-14; termination day 15
Procedure: as §1, with “200” for “250-300”, “with jugular catheters” for “in the subcutis of the dorsal back”, “one week” for “4 days”

adjuvant arthritic rats [3] = experiment: Adjuvant arthritis model, Example 1 (rhuIL-1ra IV infusion, oral methotrexate); assay type: in vivo, Male Lewis rats; conditions: rhuIL-1ra 5 mg/kg/hr continuous IV infusion from day 8; methotrexate 0.06 mg/kg oral days 0-14; termination day 15
Procedure: Male Lewis rats (Charles River, Portage, Mich.) (5 per group) weighing at least 200 g were cannulated with jugular catheters and allowed to recover for several days. They were then placed in infusion cages and acclimated for a week prior to initiating adjuvant injections. On day 0, all treated rats were injected with 100 μl of Freunds Complete Adjuvant (Sigma Chemical Co., St. […] On day 8, treatment with E. coli-derived human recombinant IL-1 receptor antagonist (prepared generally in accordance with the teachings of U.S. Pat. […] Body weights were taken on day 0 and every other day from day 8 to termination on day 15. Caliper measurements and clinical scoring were done on day 8 and every other day until termination. At this time the animals' body, paw and spleen weights were determined.

EAE model = experiment: EAE model, second Example 4 (integrated clinical score, weight gain); assay type: in vivo, Female Strain 13 guinea pigs
adjuvant arthritic rats [4] = experiment: Adjuvant arthritis model, Example 3 (rhuIL-1ra subcutaneous infusion, methotrexate dose range); assay type: in vivo, Male Lewis rats; set-up: inhibition of final paw weight: dose or concentration left out as unconfirmed; conditions: rhuIL-1ra alone
Procedure: as §1

## rhuIL-1ra: E. coli-derived human recombinant IL-1 receptor antagonist (SEQ ID NO:2), in citrate buffer formulation
Adjuvant arthritic rats [1]
  inhibition of bone resorption, histologic evaluation of ankle joints: 53%
  inhibition of inflammation, histologic evaluation of ankle joints: 8%
Adjuvant arthritic rats [1]; 5 mg/kg/hr infusion
  inhibition of swelling, ankle joint diameter over time (area under the curve): 6%
Adjuvant arthritic rats [1]; continuous subcutaneous infusion 5 mg/kg/hr, days 8-15
  inhibition of final paw weight: 6%
Adjuvant arthritic rats [2]
  inhibition of body weight change: no inhibition
  inhibition of paw swelling: 22%
  inhibition of splenomegaly: 24%
Adjuvant arthritic rats [3]
  inhibition of arthritis (paw swelling): 57%
  inhibition of body weight change: 25%
  inhibition of splenomegaly (spleen weight): no significant benefit
EAE model; rhuIL-1ra 10 mg/kg s.c. 3x a day from day 0, alone or with r-metIFN-con1 0.03 mg/kg s.c.
  attenuation of clinical symptoms/signs (integrated clinical score): 49%
EAE model; rhuIL-1ra 100 mg/kg s.c. 3x a day from day 0, alone or with r-metIFN-con1 0.03 mg/kg s.c.
  attenuation of clinical symptoms/signs (integrated clinical score): 53%
Adjuvant arthritic rats [4]
  inhibition of bone resorption, histologic evaluation of ankle joints: 53%
  inhibition of inflammation, histologic evaluation of ankle joints: 8%
Adjuvant arthritic rats [4]; 5 mg/ml/hr sc infusion
  inhibition of swelling, ankle joint diameter over time (area under the curve): 6%
Adjuvant arthritic rats [4]; continuous subcutaneous infusion, days 8-15
  inhibition of final paw weight: 6%
